This note sets out measurements from patent US9023789B2, “Amylin analogs and pharmaceutical compositions thereof” (Novo Nordisk A/S, priority 2012, dated 2015).

Numbered stars: 1 amine (or outer) side, 2 acyl side, 3 side chain; on linkers, the order of the positions; unused ones are H or OH. Bridge positions count the residues as written; N and C are the ends. Side chains are listed from the residue outwards. Peptide text beside a SMILES is read from it. * marks the point of attachment. C20 diacid = O=C(O)CCCCCCCCCCCCCCCCCCC(=O)*; γGlu = O=C(O)[C@H](CCC(=O)[*:2])N[*:1]; AEEA = NCCOCCOCC(=O)O

This experiment has as its target T1, human calcitonin (a) receptor in BHK570 cells (Homo sapiens, UniProt P30988).
T1 construct: expressed in transfected cells
T1 sequence (P30988 25-474): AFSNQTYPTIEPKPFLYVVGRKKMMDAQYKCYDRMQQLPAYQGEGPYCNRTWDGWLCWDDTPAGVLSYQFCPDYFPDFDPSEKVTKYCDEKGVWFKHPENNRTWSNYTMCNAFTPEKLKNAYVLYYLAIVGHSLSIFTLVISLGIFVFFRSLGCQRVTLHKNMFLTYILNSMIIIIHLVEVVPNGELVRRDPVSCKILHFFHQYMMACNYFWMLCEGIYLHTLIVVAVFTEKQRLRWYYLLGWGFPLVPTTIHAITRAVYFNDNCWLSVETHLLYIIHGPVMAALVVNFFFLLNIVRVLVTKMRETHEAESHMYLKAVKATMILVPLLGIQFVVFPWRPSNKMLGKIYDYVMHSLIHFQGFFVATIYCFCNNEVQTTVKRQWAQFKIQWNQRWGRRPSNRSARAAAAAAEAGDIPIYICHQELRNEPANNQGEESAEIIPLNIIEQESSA
In words: ASSAY (II)a functional assay, human calcitonin receptor (CRE luciferase). Format: cell-based. The following applies: read-out: hCTR funct. EC50. In a few lines:
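Functional agonism was measured by CRE-luciferase reporter luminescence in BHK cells bearing calcitonin receptor, or calcitonin receptor plus RAMP-3 as the amylin 3(a) receptor. Stimulation lasted 3 hours at 37° C.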
With `CC[C@H](C)[C@H](NC(=O)[C@H](C)NC(=O)CNC(=O)[C@H](Cc1ccccc1)NC(=O)[C@H](CC(N)=O)NC(=O)[C@@H]1CCCN1C(=O)[C@H](CO)NC(=O)[C@H](CO)NC(=O)[C@H](Cc1c[nH]cn1)NC(=O)[C@H](CCCNC(=N)N)NC(=O)[C@H](CC(C)C)NC(=O)[C@H](Cc1ccccc1)NC(=O)[C@H](CC(N)=O)NC(=O)[C@H](C)NC(=O)[C@H](CC(C)C)NC(=O)[C@H](CCCNC(=N)N)NC(=O)[C@H](CCC(N)=O)NC(=O)[C@@H](NC(=O)[C@H](C)NC(=O)[C@@H]1CSSC[C@H](NC(=O)[C@@H](N)CCCCNC(=O)CC[C@H](NC(=O)CCCCCCCCCCCCCCCCCCC(=O)O)C(=O)O)C(=O)N[C@@H](CC(N)=O)C(=O)N[C@@H]([C@@H](C)O)C(=O)N[C@@H](C)C(=O)N[C@@H]([C@@H](C)O)C(=O)N1)[C@@H](C)O)C(=O)N1CCC[C@H]1C(=O)N[C@@H](CO)C(=O)N[C@@H](CO)C(=O)N[C@H](C(=O)N[C@@H](CC(N)=O)C(=O)N[C@H](C(=O)NCC(=O)N[C@@H](CO)C(=O)N[C@@H](CC(N)=O)C(=O)N[C@H](C(=O)N[C@@H](Cc1ccc(O)cc1)C(N)=O)[C@@H](C)O)C(C)C)[C@@H](C)O` [Example 48], the EC50 (as a rule, the midpoint of the concentration-response curve) is 1.97 nM.

Take `CC[C@H](C)[C@H](NC(=O)[C@H](C)NC(=O)CNC(=O)[C@H](Cc1ccccc1)NC(=O)[C@H](CC(N)=O)NC(=O)[C@@H]1CCCN1C(=O)[C@H](CO)NC(=O)[C@H](CO)NC(=O)[C@H](Cc1c[nH]cn1)NC(=O)[C@H](CCCNC(=N)N)NC(=O)[C@H](CC(C)C)NC(=O)[C@H](Cc1ccccc1)NC(=O)[C@H](CC(N)=O)NC(=O)[C@H](C)NC(=O)[C@H](CC(C)C)NC(=O)[C@H](CCCNC(=N)N)NC(=O)[C@H](CCC(N)=O)NC(=O)[C@@H](NC(=O)[C@H](C)NC(=O)[C@@H]1CSSC[C@H](NC(=O)[C@@H](N)CCCCNC(=O)COCCOCCNC(=O)CC[C@H](NC(=O)CCCCCCCCCCCCCCCCCCC(=O)O)C(=O)O)C(=O)N[C@@H](CC(N)=O)C(=O)N[C@@H]([C@@H](C)O)C(=O)N[C@@H](C)C(=O)N[C@@H]([C@@H](C)O)C(=O)N1)[C@@H](C)O)C(=O)N1CCC[C@H]1C(=O)N1CCC[C@H]1C(=O)N[C@@H](CO)C(=O)N[C@H](C(=O)N[C@@H](CC(N)=O)C(=O)N[C@H](C(=O)NCC(=O)N1CCC[C@H]1C(=O)N[C@@H](CC(N)=O)C(=O)N[C@H](C(=O)N[C@@H](Cc1ccc(O)cc1)C(N)=O)[C@@H](C)O)C(C)C)[C@@H](C)O` [Example 55] (H-K([AEEA-γGlu-C20 diacid])CNTATCATQRLANFLRHSSPNFGAIPPSTNVGPNTY-NH2; disulfide 2-7; N-terminus assumed): the half-maximal effective concentration (EC50) is 0.731 nM.

For the molecule `CC[C@H](C)[C@H](NC(=O)[C@H](C)NC(=O)CNC(=O)[C@H](Cc1ccccc1)NC(=O)[C@H](CC(N)=O)NC(=O)[C@@H]1CCCN1C(=O)[C@H](CO)NC(=O)[C@H](CO)NC(=O)[C@H](Cc1c[nH]cn1)NC(=O)[C@H](CCCNC(=N)N)NC(=O)[C@H](CC(C)C)NC(=O)[C@H](Cc1ccccc1)NC(=O)[C@H](CC(N)=O)NC(=O)[C@H](C)NC(=O)[C@H](CC(C)C)NC(=O)[C@H](CCCNC(=N)N)NC(=O)[C@H](CCC(N)=O)NC(=O)[C@@H](NC(=O)[C@H](C)NC(=O)[C@@H]1CSSC[C@H](NC(=O)[C@@H](N)CCCCNC(=O)CC[C@H](NC(=O)CCCCCCCCCCCCCCCCCCC(=O)O)C(=O)O)C(=O)N[C@@H](CC(N)=O)C(=O)N[C@@H]([C@@H](C)O)C(=O)N[C@@H](C)C(=O)N[C@@H]([C@@H](C)O)C(=O)N1)[C@@H](C)O)C(=O)N1CCC[C@H]1C(=O)N[C@@H](CO)C(=O)N[C@@H](CO)C(=O)N[C@H](C(=O)N[C@@H](CC(N)=O)C(=O)N[C@H](C(=O)NCC(=O)N[C@@H](CCCNC(=N)N)C(=O)N[C@@H](CC(N)=O)C(=O)N[C@H](C(=O)N[C@@H](Cc1ccc(O)cc1)C(N)=O)[C@@H](C)O)C(C)C)[C@@H](C)O` [Example 79] (H-K([γGlu-C20 diacid])CNTATCATQRLANFLRHSSPNFGAIPSSTNVGRNTY-NH2; disulfide 2-7 (inferred); N-terminus assumed), the EC50 was found to be 3.94 nM.

As to `CC[C@H](C)[C@H](NC(=O)[C@H](C)NC(=O)CNC(=O)[C@H](Cc1ccccc1)NC(=O)[C@H](CC(N)=O)NC(=O)[C@@H]1CCCN1C(=O)[C@H](CO)NC(=O)[C@H](CO)NC(=O)[C@H](Cc1c[nH]cn1)NC(=O)[C@H](CCCNC(=N)N)NC(=O)[C@H](CC(C)C)NC(=O)[C@H](Cc1ccccc1)NC(=O)[C@H](Cc1c[nH]cn1)NC(=O)[C@H](C)NC(=O)[C@H](CC(C)C)NC(=O)[C@H](CCCNC(=N)N)NC(=O)[C@H](CCC(N)=O)NC(=O)[C@@H](NC(=O)[C@H](C)NC(=O)[C@@H]1CSSC[C@H](NC(=O)[C@@H](N)CCCCNC(=O)CC[C@H](NC(=O)CCCCCCCCCCCCCCCCCCC(=O)O)C(=O)O)C(=O)N[C@@H](CC(N)=O)C(=O)N[C@@H]([C@@H](C)O)C(=O)N[C@@H](C)C(=O)N[C@@H]([C@@H](C)O)C(=O)N1)[C@@H](C)O)C(=O)N1CCC[C@H]1C(=O)N[C@@H](CO)C(=O)N[C@@H](CO)C(=O)N[C@H](C(=O)N[C@@H](CC(N)=O)C(=O)N[C@H](C(=O)NCC(=O)N[C@@H](CO)C(=O)N[C@@H](CC(N)=O)C(=O)N[C@H](C(=O)N[C@@H](Cc1ccc(O)cc1)C(N)=O)[C@@H](C)O)C(C)C)[C@@H](C)O` [Example 70] (H-K([γGlu-C20 diacid])CNTATCATQRLAHFLRHSSPNFGAIPSSTNVGSNTY-NH2; disulfide 2-7; N-terminus assumed), the EC50 amounted to 0.715 nM.

As to `CC[C@H](C)[C@H](NC(=O)[C@H](C)NC(=O)CNC(=O)[C@H](Cc1ccccc1)NC(=O)[C@H](CC(N)=O)NC(=O)[C@@H]1CCCN1C(=O)[C@H](CO)NC(=O)[C@H](CO)NC(=O)[C@H](Cc1c[nH]cn1)NC(=O)[C@H](CCCNC(=N)N)NC(=O)[C@H](CC(C)C)NC(=O)[C@H](Cc1ccccc1)NC(=O)[C@@H](NC(=O)[C@H](C)NC(=O)[C@H](CC(C)C)NC(=O)[C@H](CCCNC(=N)N)NC(=O)[C@H](CCC(N)=O)NC(=O)[C@@H](NC(=O)[C@H](C)NC(=O)[C@@H]1CSSC[C@H](NC(=O)[C@@H](N)CCCCNC(=O)COCCOCCNC(=O)CC[C@H](NC(=O)CCCCCCCCCCCCCCCCCCC(=O)O)C(=O)O)C(=O)N[C@@H](CC(N)=O)C(=O)N[C@@H]([C@@H](C)O)C(=O)N[C@@H](C)C(=O)N[C@@H]([C@@H](C)O)C(=O)N1)[C@@H](C)O)[C@@H](C)O)C(=O)N1CCC[C@H]1C(=O)N[C@@H](CO)C(=O)N[C@@H](CO)C(=O)N[C@H](C(=O)N1CCC[C@H]1C(=O)N[C@H](C(=O)NCC(=O)N[C@@H](CO)C(=O)N[C@@H](CC(N)=O)C(=O)N[C@H](C(=O)N[C@@H](Cc1ccc(O)cc1)C(N)=O)[C@@H](C)O)C(C)C)[C@@H](C)O` [Example 75] (H-K([AEEA-γGlu-C20 diacid])CNTATCATQRLATFLRHSSPNFGAIPSSTPVGSNTY-NH2; disulfide 2-7 (inferred); N-terminus assumed), the EC50 came to 9.07 nM.

For `CC[C@H](C)[C@H](NC(=O)[C@H](C)NC(=O)CNC(=O)[C@H](Cc1ccccc1)NC(=O)[C@H](CC(N)=O)NC(=O)[C@@H]1CCCN1C(=O)[C@H](CO)NC(=O)[C@H](CO)NC(=O)[C@H](Cc1c[nH]cn1)NC(=O)[C@H](CCCNC(=N)N)NC(=O)[C@H](CC(C)C)NC(=O)[C@H](Cc1ccccc1)NC(=O)[C@H](CC(N)=O)NC(=O)[C@H](C)NC(=O)[C@H](CC(C)C)NC(=O)[C@H](CCCNC(=N)N)NC(=O)[C@H](CCC(N)=O)NC(=O)[C@@H](NC(=O)[C@H](C)NC(=O)[C@@H]1CSSC[C@H](NC(=O)[C@H](CCCNC(=N)N)NC(=O)[C@@H](N)CCCCNC(=O)CC[C@H](NC(=O)CCCCCCCCCCCCCCCCCCC(=O)O)C(=O)O)C(=O)N[C@@H](CC(N)=O)C(=O)N[C@@H]([C@@H](C)O)C(=O)N[C@@H](C)C(=O)N[C@@H]([C@@H](C)O)C(=O)N1)[C@@H](C)O)C(=O)N1CCC[C@H]1C(=O)N[C@@H](CO)C(=O)N[C@@H](CO)C(=O)N[C@H](C(=O)N[C@@H](CC(N)=O)C(=O)N[C@H](C(=O)NCC(=O)N[C@@H](CO)C(=O)N[C@@H](Cc1c[nH]cn1)C(=O)N[C@H](C(=O)N[C@@H](Cc1ccc(O)cc1)C(N)=O)[C@@H](C)O)C(C)C)[C@@H](C)O` [Example 44] (H-K([γGlu-C20 diacid])RCNTATCATQRLANFLRHSSPNFGAIPSSTNVGSHTY-NH2; disulfide 3-8), the EC50 came to 4.75 nM.

On to `CC[C@H](C)[C@H](NC(=O)[C@H](C)NC(=O)CNC(=O)[C@H](Cc1ccccc1)NC(=O)[C@H](CC(N)=O)NC(=O)[C@@H]1CCCN1C(=O)[C@H](CO)NC(=O)[C@H](CO)NC(=O)[C@H](Cc1c[nH]cn1)NC(=O)[C@H](CCCNC(=N)N)NC(=O)[C@H](CC(C)C)NC(=O)[C@H](Cc1ccccc1)NC(=O)[C@H](CC(N)=O)NC(=O)[C@H](C)NC(=O)[C@H](CC(C)C)NC(=O)[C@H](CCCNC(=N)N)NC(=O)[C@H](CCC(N)=O)NC(=O)[C@@H](NC(=O)[C@H](C)NC(=O)[C@@H]1CSSC[C@H](NC(=O)[C@@H](N)CCCCNC(=O)COCCOCCNC(=O)CC[C@H](NC(=O)CCCCCCCCCCCCCCCCCCC(=O)O)C(=O)O)C(=O)N[C@@H](CC(N)=O)C(=O)N[C@@H]([C@@H](C)O)C(=O)N[C@@H](C)C(=O)N[C@@H]([C@@H](C)O)C(=O)N1)[C@@H](C)O)C(=O)N1CCC[C@H]1C(=O)N[C@@H](CO)C(=O)N1CCC[C@H]1C(=O)N[C@H](C(=O)N1CCC[C@H]1C(=O)N[C@H](C(=O)NCC(=O)N[C@@H](CO)C(=O)N[C@@H](CC(N)=O)C(=O)N[C@H](C(=O)N[C@@H](Cc1ccc(O)cc1)C(N)=O)[C@@H](C)O)C(C)C)[C@@H](C)O` [Example 54] (H-K([AEEA-γGlu-C20 diacid])CNTATCATQRLANFLRHSSPNFGAIPSPTPVGSNTY-NH2; disulfide 2-7; N-terminus assumed), for which the EC50 worked out at 0.987 nM.
